Laboratory results published in paper PMC12434667 (Journal of Medicinal Chemistry, 2025).
Several values for one entry are separate records, joined by “and”; a condition that tells them apart may be missing. Equal values may be shown once.

Key:
Rat PK = type: in vivo; conditions: plasma, po, 10 mg/kg
CDK1 = CDK1 (Homo sapiens, UniProt P06493); assay: 24-hr AlphaLISA of CDK1 degradation in TOV21G cells; type: cell-based; conditions: vs CDK2 degradation
CDK4 = CDK4 (Homo sapiens, UniProt P11802); assay: 24-hr western blot of CDK4 degradation in TOV21G cells; type: cell-based; conditions: read-out: TOV21G CDK4 DC50
CDK6 = CDK6 (Homo sapiens, UniProt Q00534); assay: 24-hr western blot of CDK6 degradation in TOV21G cells; type: cell-based; conditions: read-out: TOV21G CDK6 DC50
CDK9 = CDK9 (Homo sapiens, UniProt P50750); assay: 24-hr AlphaLISA of CDK9 degradation in TOV21G cells; type: cell-based
pRB S807/811 = assay: 24-hr AlphaLISA of pRB inhibition in MKN1 cells; type: cell-based; conditions: Homo sapiens, MKN-1, 24 h
Monkey PK = type: in vivo
Dog PK = type: in vivo
human PBMC cells = assay: Tandem mass tag deep proteome profiling; type: cell-based; conditions: 800 nM, 8 h, over 8000 proteins
[1] = Plasma PK in HCC1569 xenograft model; type: in vivo; conditions: mouse HCC1569 xenograft; for AUC0–24h free: mouse PPB 98.02%
Plasma protein binding = type: in vitro ADME; conditions: mouse
HCC1569 tumor xenograft = HCC1569 tumor xenograft efficacy; type: in vivo, mouse; conditions: 28 days; for day 28 %dTV (mean ± SEM): HCC1569 xenograft mice
pRB = assay: Tumor AlphaLISA; type: in vivo, mouse; conditions: HCC1569 xenograft, sustained

Sequence of CDK9 (P50750 whole entry): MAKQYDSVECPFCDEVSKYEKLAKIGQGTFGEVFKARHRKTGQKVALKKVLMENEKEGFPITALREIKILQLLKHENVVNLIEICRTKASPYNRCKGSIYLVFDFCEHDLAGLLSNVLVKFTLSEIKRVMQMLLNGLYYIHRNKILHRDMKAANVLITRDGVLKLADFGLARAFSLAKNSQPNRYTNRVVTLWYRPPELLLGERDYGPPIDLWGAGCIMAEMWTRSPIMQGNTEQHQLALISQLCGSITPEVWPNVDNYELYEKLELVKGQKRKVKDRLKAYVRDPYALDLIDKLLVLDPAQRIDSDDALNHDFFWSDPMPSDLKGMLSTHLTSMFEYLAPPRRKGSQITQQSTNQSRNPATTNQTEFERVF
Sequence of CDK1 (P06493 whole entry): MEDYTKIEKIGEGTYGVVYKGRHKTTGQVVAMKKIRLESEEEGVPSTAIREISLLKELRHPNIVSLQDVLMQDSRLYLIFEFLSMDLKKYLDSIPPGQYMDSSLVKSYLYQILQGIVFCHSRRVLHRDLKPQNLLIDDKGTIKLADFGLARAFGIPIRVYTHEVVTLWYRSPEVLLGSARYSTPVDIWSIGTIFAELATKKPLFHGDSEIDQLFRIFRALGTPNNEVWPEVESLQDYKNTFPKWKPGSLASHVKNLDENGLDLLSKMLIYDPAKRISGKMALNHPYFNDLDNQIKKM
Sequence of CDK4 (P11802 whole entry): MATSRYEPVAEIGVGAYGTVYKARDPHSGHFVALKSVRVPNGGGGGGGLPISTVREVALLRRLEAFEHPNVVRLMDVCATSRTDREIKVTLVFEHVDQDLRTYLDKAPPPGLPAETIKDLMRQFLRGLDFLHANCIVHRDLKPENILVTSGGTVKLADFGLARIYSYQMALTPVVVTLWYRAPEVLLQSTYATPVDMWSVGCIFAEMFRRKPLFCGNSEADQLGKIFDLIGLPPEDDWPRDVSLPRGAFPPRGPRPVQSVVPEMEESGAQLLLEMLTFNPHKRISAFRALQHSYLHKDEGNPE
Sequence of CDK6 (Q00534 whole entry): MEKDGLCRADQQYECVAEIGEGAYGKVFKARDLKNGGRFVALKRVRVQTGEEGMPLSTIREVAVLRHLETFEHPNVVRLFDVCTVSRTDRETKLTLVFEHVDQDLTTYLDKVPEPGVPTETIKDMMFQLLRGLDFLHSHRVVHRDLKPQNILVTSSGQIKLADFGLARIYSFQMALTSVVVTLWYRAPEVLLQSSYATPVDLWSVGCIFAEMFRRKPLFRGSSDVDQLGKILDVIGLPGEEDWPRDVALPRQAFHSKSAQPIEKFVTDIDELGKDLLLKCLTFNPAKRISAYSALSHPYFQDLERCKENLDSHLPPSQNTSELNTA

Question: Which results are given for C[C@]1(O)CCCN(c2nc(Nc3ccc(S(=O)(=O)N[C@@H]4CCN(CC5CCN(c6ccc(C7CCC(=O)NC7=O)cc6F)CC5)C[C@@H]4F)cc3F)ncc2C(F)(F)F)C1 (stereo partly drawn) [Compound 37, N-[(3S,4R)-1-[[1-[4-(2,6-Dioxo-3-piperidyl)-2-fluoro-phenyl]-4-piperidyl]methyl]-3-fluoro-4-piperidyl]-3-fluoro-4-[[4-[(3S)-3-hydroxy-3-methyl-1-piperidyl]-5-(trifluoromethyl)pyrimidin-2-yl]amino]benzenesulfonamide]?
Answer: AUC(0-t) (Rat PK): 3.63 µM·h; Cmax (Rat PK): 261 nM; degradation selectivity over CDK1 (CDK1): > 100 fold; DC50 (CDK4): > 10000 nM; DC50 (CDK6): 1280 nM; DC50 (CDK9; read-out: TOV21G CDK9 DC50, 24 h): > 10000 nM; degradation selectivity over CDK9 (CDK9; vs CDK2 degradation): > 500 fold; IC50 (pRB S807/811; read-out: MKN1 pRB IC50): 23 nM; IC90 (pRB S807/811; read-out: MKN1 pRB IC90): 110 nM; monkey F (Monkey PK; IV 0.07 / PO 1 mg/kg, 1 mg/kg): 12%; Vd (Monkey PK; plasma, iv, 0.07 mg/kg): 5.7 L/kg; clearance (Monkey PK; plasma, iv, 0.07 mg/kg): 9.1 mL/min/kg; half-life (Monkey PK; plasma, iv, 0.07 mg/kg): 8.6 h; AUC(0-t) (Monkey PK; plasma, po, 1 mg/kg): 0.25 µM·h; Cmax (Monkey PK; plasma, po, 1 mg/kg): 14 nM; dog F (Dog PK; IV 0.1 / PO 1 mg/kg, 1 mg/kg): 12%; Vd (Dog PK; plasma, iv, 0.1 mg/kg): 4.2 L/kg; clearance (Dog PK; plasma, iv, 0.1 mg/kg): 3.9 mL/min/kg; half-life (Dog PK; plasma, iv, 0.1 mg/kg): 14.4 h; AUC(0-t) (Dog PK; plasma, po, 1 mg/kg): 0.557 µM·h; Cmax (Dog PK; plasma, po, 1 mg/kg): 26 nM; significantly downregulated proteins (human PBMC cells): CDK2 as the only significantly downregulated protein; AUC0–24h/D ([1]; PO 10 mg/kg BID × 3 days): 624 mg·h/mL; AUC0–24h/D ([1]; PO 25 mg/kg BID × 3 days): 709 mg·h/mL; AUC0–24h free ([1]; PO 25 mg/kg BID × 3 days): 14.2 ng·h/mL; AUC0–24h/D ([1]; PO 50 mg/kg BID × 3 days): 949 mg·h/mL; AUC0–24h free ([1]; PO 50 mg/kg BID × 3 days): 19.0 ng·h/mL; AUC0–24h/D ([1]; PO 50 mg/kg QD × 3 days): 1377 mg·h/mL; AUC0–24h free ([1]; PO 50 mg/kg QD × 3 days): 27.5 ng·h/mL; fraction unbound at 30 min, 1 µM (Plasma protein binding): 0.0198; antitumor activity (HCC1569 tumor xenograft; 25 mg/kg PO BID): stable disease (30 to −30% is stable disease (0% = Tumor Stasis)); day 28 %dTV (mean ± SEM) (HCC1569 tumor xenograft; 25 mg/kg PO BID): –26 ± 9%; antitumor activity (HCC1569 tumor xenograft; 50 mg/kg PO BID): stable disease (30 to −30% is stable disease (0% = Tumor Stasis)); day 28 %dTV (mean ± SEM) (HCC1569 tumor xenograft; 50 mg/kg PO BID): –24 ± 10%; antitumor activity (HCC1569 tumor xenograft; 50 mg/kg PO QD): stable disease (30 to −30% is stable disease (0% = Tumor Stasis)); inhibition of pRB in tumor (pRB): 90% and > 90%
